Results: patent publication US20240299457A1, “METHODS FOR TREATING DISEASE ASSOCIATED WITH SENESCENCE” (Steadman Philippon Research Institute, priority 2019, published 2024)
Entries after “also recorded” stand apart in the source; their conditions may differ.

How the values were obtained:
C12FDG+ T-Cells = test: Bright and dim C12FDG+ T-cells in five patients treated with Fisetin; type: in vivo, human
Description: A certified phlebotomist used a 19-gauge butterfly needle to perform a standard venipuncture from the antecubital (AC) area, forearm or hand vein. Approximately 35 mL of blood was drawn into one 30 cc syringe (with ACD-A) and one 5 cc (without ACD-A) syringe. […] For total PBMCs and enriched T-Cells, SepMate™ tubes (Stem Cell Technologies) were used following manufactures protocol with Lymphoprep™ (Stem Cell Technologies) gradient centrifugation. Specifically, in separate tubes, CD3+ T-Cells were enriched using the RosetteSep™ commercial kit following manufactures instructions (Stem Cell Technologies #15021). A portion of cells (enriched T-cells and total PBMCs) were stained with 30 μM C12FDG in general culture media supplemented with 10% FBS and analyzed with flow cytometry (Guava EasyCyte, Luminex). To assess the percent, number, and concentration (cell/ml) of senescent CD3+ T-cells and PBMCs, settings were adjusted first using an unstained control (i.e., cells not treated with C12FDG). First, thresholds were set for FSC and SSC to catch cellular events. Next the green channel gain controls were set so that the background events fall between the 1st and second decade. […] Samples were ran in triplicate with water-only runs every 5 wells. Five patients with an age range from 56-77 years were treated with Fisetin at 100 mg/day for 30-45 days.

senescent CD3+ T-cells = test: Senescent peripheral blood CD3+ T-cells before and after oral Fisetin, C12FDG flow cytometry (person); type: in vivo, human; conditions: CD3+ cells after Fisetin treatment, 100 mg per day for 45 days
Description: Whole blood was collected from a subject into 50 ml Syringe containing ACD-A and set on a rocker. SepMate tubes (Stem Cell Technologies) were prepared with 15 ml Lymphoprep in a sterile environment. 10 ml whole blood were aliquoted into 50 ml conical tubes. 500 μl (50 μl/ml) RosetteSep (Stem Cell Technologies) was added to 10 mL sample of blood. For other blood samples, total PBMCs were collected as described below without T-cell enrichment for comparison. The mixture was incubated 10 min at room temperature (RT). An equal volume dilution medium (DM-sterile PBS and 2% FBS) was added to the sample and mixed gently. The diluted sample was slowly added to the SepMate tube containing Lymphoprep density gradient medium. The mixture was centrifuged at 1200×g for 10 minutes, brake on. The enriched cells were collected by pouring supernatant into a new tube. […]
Senescent cells were treated with Fisetin and then further characterized using flow cytometry (as described in Example 4, above). Peripheral Blood CD3+ T-cells from a person before & after Fisetin treatment (100 mg per day for 45 days) were evaluated for senescence and for senescent cell populations. Before treatment, the subject measured about 29% senescent cells, and after treatment, the subject measured about 4% senescent cells (data not shown).

mice OA models = conditions: cited from earlier work
[1] = tested on: senescence-associated heterochromatin foci (SAHF) in ADSCs; test: Immunofluorescence of senescence-associated heterochromatin foci (H3K9, γ-H2AX) in ADSCs; type: cell-based, human; conditions: 50 μM Fisetin
Description: Specifically, the cells were maintained in T-75 culture flasks using normal growth media (DMEM:F-12 with 10% FBS and 1% penicillin/streptomycin). At 70-90% confluency, the cells were passaged and reseeded in the flasks at a 1:4 dilution. At their respective testing passage number, cells were plated into chamber slides for SAHF staining at a density of 5,000 cells/cm^2. Cells were seeded in triplicate for each group and incubated to adhere overnight. The following day, cells were fixed with cold 4% paraformaldehyde and stained with the H2AX antibody using a 1:150 dilution and the H3K9 antibody using a 1:250 dilution. DAPI was also used to stain the nuclei. Five images per well and three wells per group were imaged using the Nikon Eclipse Ni-U microscope. Cells positive for the H2AX and H3K9 antibodies were quantified using the ImageJ software.
Each cell type was given 3 replicate wells, and each well was imaged 6 times, for a total of 18 images per group. Using an Image J program, the number of cells positive for each marker was quantified.
To determine Fisetin's senolytic ability in vitro, based on the data from the preceding example, the 50 μM Fisetin concentration was used to treat YF and OF cells. Senescent cells were quantified by immunofluorescence using ? -H2AX and H3K9. Similarly, YM and OM cells were quantified using C12FDG for flow cytometry. […]

Zmpste24−/− mice [2] = test: Transcript levels of senescence marker and SASP factors in tissues of Z24−/− mice; type: in vivo, mouse; conditions: 100 mg/kg weekly
Description: (§1) Adult progeroid Z24−/− mice were administered senolytic drugs via oral gavage (150 μl volume) starting at 2.5 to 3.0 months of age. D/Q (5 mg/kg: 50 mg/kg in 10% PEG400/5.0% DMSO) was given as a single dose at 2.5 months or multi-dose at 2.5, 3.0, 3.5, 4.0, 4.5, and 5.0 months. Both single and multi-dose DQ mice were sacrificed at 5 months. FIS (100 mg/kg in 90% PEG400/10.0% ethanol) treated mice were given a total of 4 weekly doses of drug starting at 3.0 months of age, then sacrificed at 4.0 months of age. For 17-DMAG treatments (10 mg/kg, 1% DMSO-PBS), mice were treated 3 times per week starting at 2 months of age then sacrificed at 4 months of age.
(§2) Z24−/−mice were treated with Fisetin weekly for 4 weeks (100 mg/kg) starting at 3 months of age then sacrificed at 4 months of age. 4 months was chosen as a sacrifice time (versus 5 months) given the more advanced pathology that occurred at 5 months, a time when therapies might have negligible effects like seen in D+Q treated animals.

[3] = tested on: senescent ADSCs (β-galactosidase, C12FDG); test: C12FDG staining of senescence-associated β-galactosidase with flow cytometry in culture-expanded ADSCs; type: cell-based, human
Description: Cells were treated with 100 nM of bafilomycin A1 for 1 hour at 37° C. and 5% CO2. Next, 33 μM C12FDG was added and incubated for 2 hours. Thus, cells were stained with the fluorescent senescence-associated marker C12FDG, collected, and tested for senescence using flow cytometry after 50 μM Fisetin treatment. 3 replicates were used per treatment. The InCyte software was used, and fluorescent gating was determined using unstained control cells.
To determine Fisetin's senolytic ability in vitro, based on the data from the preceding example, the 50 μM Fisetin concentration was used to treat YF and OF cells. Senescent cells were quantified by immunofluorescence using ? -H2AX and H3K9. Similarly, YM and OM cells were quantified using C12FDG for flow cytometry. C12FDG reacts with beta-galactosidase, a biomarker for senescence, to produce a fluorogenic substrate to be detected and quantified by flow cytometry.
Cells were seeded in triplicate for each group using previously described culture methods and seeding densities. After adhering overnight, the media was changed. […] After culturing in normal growth media for another 24 hours, the media was collected for SASP quantification or the cells were processed for C12FDG or SAHF staining, as described in the preceding example.

Zmpste24−/− mice [4] = test: Micro-CT analysis of bone in progeroid Z24−/− mice given senolytic drugs; type: in vivo, mouse
Description: as §1
For Fisetin treatments, mice were imaged using the explore Locus Utra Pre-Clinical CT Scanner (GE Healthcare, London, ON) through the pre-Clinical CT Core Facility with the following acquisition settings: 140 kVp, 22 mA with 16 s rotation/exposure. Non-cardiac gated CT images were acquired at all-time points. Simple back projections were obtained from the […] image reconstruction and exported as DICOM images. Image analysis was performed using the OsiriX software. Qualitative analysis of the bones was performed in 2D and 3D reconstructions using OsiriX. MicroView imaging software was also used for the quantitative analysis of the bone mineral density.
as §2

[5] = tested on: SASP factors IL-6, IL-8, MCP-1; test: SASP factor quantification in ADSC culture media (Milliplex); type: cell-based, human; conditions: after Fisetin treatment, media 24 hours
Description: For SASP detection, the media were collected after incubating with the cells for 24 hours, centrifuged at 2,000×g for ten minutes, transferred to new microcentrifuge tubes, and stored at −80° C. until testing. The Human Adipocyte Milliplex kit using the EMD Millipore Milliplex instrument was used to quantify the SASPs.
Cells were seeded in triplicate for each group using previously described culture methods and seeding densities. After adhering overnight, the media was changed. For the untreated group normal ADSC growth media was used (DMEM:F-12 with 10% FBS and 1% penicillin/streptomycin), and for the treated group 50 μM Fisetin was added. Cells were treated for 24-hours, after which the media was changed back to normal growth media for all groups. After culturing in normal growth media for another 24 hours, the media was collected for SASP quantification or the cells were processed for C12FDG or SAHF staining, as described in the preceding example.
Within the R1 region of FIGS. 4B-4D, cells positive for C12FDG are noted by their respective peaks. […] In all groups, a decrease was indicated. […] 3 replicates were used for each treatment. (FIG. 6).

low passage (<p4) ADSCs = test: CellTiter 96 AQueous Cell Proliferation Assay (cell toxicity); type: cell-based, human
Description: Banked ADSCs isolated from person three, person four, person two, and person one were purchased and cultured with normal growth media (DMEM/F:12, 10% FBS, and 1% penicillin/streptomycin).
Fisetin was added to growth media and treated on cells for 24 hours. Following treatment, the media was changed to normal growth media for 24 hours before being used for cell toxicity, immunofluorescence, or flow cytometry.
The CellTiter 96® AQueous Cell Proliferation Assay was used to determine the toxicity of 50 μM, 25 μM, and 1 μM Fisetin on low passage (<p4) cells. Cells were seeded at 40,000 cells/well in a 12-well plate. After adhering overnight, the cells were treated with 50 μM, 25 μM, and 1 μM of Fisetin for 24 hours. After treatment, the media was changed back to normal growth media for another 24 hours. The cells were then treated with the CellTiter 96 AQueous Cell Proliferation Assay following the manufacturer's protocol. Values are relative to untreated, control cells.

[6] = Losartan administration; cited from earlier work
[7] = treated versus untreated Z24−/− mice

Structure (SMILES): O=c1c(O)c(-c2ccc(O)c(O)c2)oc2cc(O)ccc12 [Fisetin, 2-(3,4-dihydroxyphenyl)-3,7-dihydroxychromen-4-one]
- reduction in the percent of C12FDG+ cells (dim, early stage) (C12FDG+ T-Cells; 100 mg/day for 30-45 days): 1-2 fold
- bright cells, mean (C12FDG+ T-Cells; P19, treated/post-treated): 1.15%
- dim cells, mean (C12FDG+ T-Cells; P19, treated/post-treated): 26.70%
- bright cells, mean (C12FDG+ T-Cells; P50, treated/post-treated): 0.60%
- dim cells, mean (C12FDG+ T-Cells; P50, treated/post-treated): 27.55%
- reduction in bright C12FDG+ T-cells (C12FDG+ T-Cells; patients with high baseline bright cells, 100 mg/day for 30-45 days): 10-20 fold
- Senescent cell concentration (senescent CD3+ T-cells): 7397 +/− 3191 cells/mL
- Total senescent cells (senescent CD3+ T-cells): 191 +/− 73
- cartilage destruction (mice OA models): decreased
- subchondral bone plate thickness (mice OA models): decreased
- synovitis (mice OA models): relieved
- number of cells positive for H3K9 ([1]; OF and YF cells, passages 4 and 18): significantly reduced in all groups
- γ-H2AX positive cells ([1]; low passage OF, low passage YF, high passage YF cells): reduced
- transcript levels of IL-6 (Zmpste24−/− mice [2]): reduced
- transcript levels of TGF-β (Zmpste24−/− mice [2]): reduced
- transcript levels of p16INK4a (Zmpste24−/− mice [2]): reduced
- % cells positive for C12FDG (senescence) ([3]; 50 μM Fisetin, 24 hours, passages 6, 8, 10): significantly reduced; also recorded: reduced at every passage
- count of the peak representing senescent cells (histogram) ([3]; cells treated with 50 μM Fisetin): about 20
- bone density loss (Zmpste24−/− mice [4]; 100 mg/kg weekly for 4 weeks from 3 months of age, micro-CT): significantly attenuate
- protective effects in bone (Zmpste24−/− mice [4]; Z24−/− mice, oral gavage): effective
- Hounsfield unit (HU) intensity (Zmpste24−/− mice [4]; [7]): Significant higher scores
- bone mineral density (BMD) (Zmpste24−/− mice [4]; [7]): Significant higher scores
- specific bone surface (BS/BV) (Zmpste24−/− mice [4]; [7]): Significant higher scores
- IL-6 concentration [5]: decrease
- IL-8 concentration [5]: decrease
- MCP-1 concentration [5]: decrease
- toxicity to the health of low passage ADSCs (low passage (<p4) ADSCs; 50 μM): not toxic
- percentage of viable cells among treatments (low passage (<p4) ADSCs; 50 μM, 25 μM, 1 μM, YF, OF, YM, OM, relative to untreated control cells): no significant difference
- toxicity to ADSCs (low passage (<p4) ADSCs; 1-50 μM, 24 hours treatment): non-toxic
- ADSC viability and proliferation (low passage (<p4) ADSCs; Fisetin exposure): not hindered

Structure (SMILES): CCCCc1nc(Cl)c(CO)n1Cc1ccc(-c2ccccc2-c2nn[nH]n2)cc1 [Losartan]
- microfracture for cartilage repair [6]: enhance
